US4956362A, “Use of carpipramine for the treatment of anxiety and sleep disorders” (Rhone-Poulenc Sante, a French Body Corporate, priority 1988, dated 1990)
pIC50: −log10 of the molar value.

Legend:
[1] = tested on: mescaline-induced heat twitches; test: Antagonism of mescaline-induced heat twitches in mice; assay type: in vivo; conditions: Mus musculus, sc, subcutaneously administered, read-out: AD50 (the source's name)
Protocol: In this test, the AD50 of subcutaneously administered carpipramine is 8 mg/kg.

mice = test: Acute oral toxicity in mice; conditions: mouse, in vivo
[2] = Acute oral toxicity in mice; conditions: mouse, in vivo, po; administered orally in mice
[3] = biological target: T1, central serotonin receptor sites (type S2) (Rattus norvegicus, UniProt P14842); test: Affinity for central serotonin receptor sites (type S2), tritiated ketanserin binding
T1 construct: central serotonin receptor sites (type S2); from tissue; the cited Leysen 1982 method used rat prefrontal/frontal cortex, own knowledge
T1 sequence (P14842 whole entry): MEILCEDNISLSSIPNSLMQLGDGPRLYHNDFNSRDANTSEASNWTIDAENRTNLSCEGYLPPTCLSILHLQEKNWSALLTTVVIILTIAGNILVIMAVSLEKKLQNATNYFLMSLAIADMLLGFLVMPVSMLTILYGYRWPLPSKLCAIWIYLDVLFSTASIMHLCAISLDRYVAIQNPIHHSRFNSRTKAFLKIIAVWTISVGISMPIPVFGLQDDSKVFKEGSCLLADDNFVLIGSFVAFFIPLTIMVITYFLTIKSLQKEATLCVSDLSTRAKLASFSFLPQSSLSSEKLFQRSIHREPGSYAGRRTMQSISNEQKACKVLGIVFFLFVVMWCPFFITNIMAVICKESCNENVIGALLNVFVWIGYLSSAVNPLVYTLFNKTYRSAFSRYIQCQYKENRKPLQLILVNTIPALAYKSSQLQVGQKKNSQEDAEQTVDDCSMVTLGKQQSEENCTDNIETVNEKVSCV
Protocol: The affinity of carpipramine for central serotonin receptor sites (type S2) was determined by a technique based on that of J. E. LEYSEN et al., Mol. Pharmacol. 21, 301 (1982), which consists in measuring the affinity of the product for binding sites for tritiated ketanserin. In this test, the IC50 of carpipramine is 3 nM.

Structure (SMILES): NC(=O)C1(N2CCCCC2)CCN(CCCN2c3ccccc3CCc3ccccc32)CC1 [carpipramine, 5-[3-(4-carbamoyl-4-piperidinopiperidino)-1-propyl]-10,11-dihydrodibenz[b,f]azepine]
- ED50 [1]: 8 mg/kg
- toxicity (mice): low toxicity
- LD50 [2]: 250 mg/kg
- pIC50 [3]: 8.52
